# Measured values from ChEMBL document CHEMBL3091347, “Comparison of Multiple Linear Regressions and Neural Networks based QSAR models for the design of new antitubercular compounds” (Eur J Med Chem, 2013).
# Columns and labels:
# [1] = system: Mycobacterium tuberculosis; test: Antitubercular activity against Mycobacterium tuberculosis; type: functional; details: for MIC: Mycobacterium tuberculosis
# [2] = Lipophilicity, log P of the compound; details: octanol/water
Structure (SMILES),log(1/MIC) [1],MIC [1] [µg/mL],logP ([2]; logP),logP [2]
C/C=N/NC(=O)c1ccncc1,1.4,0.04,-1.93,
NNC(=O)c1ccnc(Cl)c1,-1.83,67.3,-1.61,
Cc1ncnc(O)c1C(=O)NN,-2.6,400,-2.88,
CC(C)=NNC(=O)c1ccncc1,1.7,0.02,-1.53,
N/N=C/C(CC(=O)c1ccncc1)C(=O)c1ccncc1 (stereo not given),0.82,0.15,-2.83,
NNC(=O)C1CCCO1 (stereo not given),0.52,0.3,-2.12,
CC(C)=NNC(=O)c1cccs1,0.35,0.45,-0.404,
O=C(NO)c1ccncc1,-2.08,120,-2.65,
CN(C)C(=O)N1CCC(C(=O)NN)CC1,-2.78,600,-3.12,
O=C(NN=C1CCCCC1)c1ccncc1,2.22,0.01,-0.334,
O=C(NNC(O)C(Cl)(Cl)Cl)c1ccncc1 (stereo not given),1.4,0.04,,-1.22
CC(C)CNNC(=O)c1ccncc1,1,0.1,-0.719,
O=C(N/N=C/C(O)C(O)C(O)C(O)CO)c1ccco1 (stereo not given),-0.78,6,-3.86,
CC(O)(NNC(=O)c1ccncc1)C(=O)O (stereo not given),1.22,0.06,-2.78,
NNC(=O)c1ccnc(Br)c1,-2.12,133,-1.46,
CC(=O)NNC(=O)c1ccncc1,-1.18,15,-3.45,
NNC(=O)c1ccnc(-c2ccccc2)c1,-1.03,10.7,-0.634,
NNC(=O)c1c[nH]c(S)n1,-2.4,250,-2.26,

Structure (SMILES),log(1/MIC) [1],MIC [1] [µg/mL],logP ([2]; logP),logP [2]
NNC(=O)c1ccco1,1.22,0.06,-0.139,
NNS(=O)(=O)c1ccc(N)cc1,-1.4,25,-1.85,
CC(=O)NNC(C)=O,-2.78,600,-3.91,
N/N=C/C(O)C(O)C(O)C(CC(=O)c1ccncc1)C(=O)c1ccncc1 (stereo not given),1.4,0.04,,-5.16
C/C(=N\NC(=O)c1ccncc1)c1cccc(CN2CCCCC2)c1O,-0.21,1.62,2.55,
Nc1ccc(S(=O)(=O)NNC(=O)c2ccncc2)cc1,-2.78,600,-2.51,
NNC(=O)c1ccnc([N+](=O)[O-])c1,-1.83,67.6,-2.21,
O=C(NNC(=O)c1ccco1)c1ccco1,-2,100,1.38,
NNC(=O)c1cccc([N+](=O)[O-])c1,0.22,0.6,-1.1,
CC(C)Cc1cc(C(=O)NN)ccn1,-1.94,87,-0.216,
CC(C)(C#N)NNC(=O)c1ccncc1,1.22,0.06,-0.976,
CN1CCC(C(=O)NN)CC1,-2.78,600,-2.49,
NNC(=O)CN1CSC(N)=N1,-2.48,300,,-4.033
CC(=O)Nc1cc(C(=O)NN)ccn1,-2.62,418,-2.93,
CC(=O)N(Nc1ccccc1)c1ccccc1,-2,100,1.31,
NNC(=O)c1cccs1,-0.9,8,-1.2,
CON1C(=O)C(=O)N1c1ccc([N+](=O)[O-])cc1,1.52,0.03,0.963,
